Reference: paper PMC10824102, “Identification of small molecule inhibitors of G3BP-driven stress granule formation” (The Journal of Cell Biology, 2024)

What was measured:
[1] = test system: stress granule formation in human iPSC-derived cortical neurons; experiment: Stress granule formation in iPSC-derived cortical neurons (co-incubation); format: cell-based; settings: 50 μM co-incubated with or without 500 μM NaAsO2 for 60 min
Description: (§1) i3N iPSC clones were gifts from Michael E. Ward (National Institutes of Health, Bethesda, MD, USA) and were used to generate a G3BP1-mNeongreen knock-in iPSC line. iPS neurons were differentiated with a two-step protocol (predifferentiation and maturation) as previously described ([Wang et al., 2017]). For predifferentiation, iPSCs were incubated with 1 µg/ml doxycycline hyclate (Sigma-Aldrich) for 3 days at a density of 1.2 × 10^6 cells/well in six-well dishes coated with Matrigel in knockout DMEM (KO-DMEM)/F12 medium (Thermo Fisher Scientific) containing N2 supplement (Thermo Fisher Scientific), non-essential amino acids (NEAA; Thermo Fisher Scientific), GlutaMAX Supplement (Thermo Fisher Scientific), and Y-27632 ([…] Technologies). The medium was changed daily and Y-27632 was removed from day 2. For maturation, predifferentiated precursor cells were dissociated, counted, and subplated at 25 × 10^4 cells/ml on dishes coated with 50 μg/ml poly-L-ornithine in BrainPhys neuronal medium ([…] Technologies) containing N2 (Thermo Fisher Scientific), B-27, 20 ng/ml BDNF (PeproTech), 20 ng/ml GDNF (PeproTech), 500 µg/ml dibutyryl cyclic-AMP (Sigma-Aldrich), 200 nM L-ascorbic acid (Sigma-Aldrich), 1 µg/ml natural mouse laminin (Thermo Fisher Scientific), 1 μM Ara-C (Sigma-Aldrich), and 1 µg/ml doxycycline hyclate. Half-medium was changed every other day. […]

[2] = test system: preformed stress granules in human iPSC-derived cortical neurons; experiment: Dissolution of preformed stress granules in iPSC-derived cortical neurons; format: cell-based; settings: 50 μM added after 30 min of 500 μM NaAsO2
Description: as §1

[3] = target: T1, condensate formation by G3BP1 and RNA (Homo sapiens, UniProt Q13283); experiment: In vitro LLPS, two-component system (G3BP1 and RNA); format: biochemical; settings: 20 μM G3BP1, 100 ng RNA, up to 166 μM compound
T1 construct: made in house; host or cells: E. coli BL21 (DE3)
T1 sequence (Q13283 whole entry): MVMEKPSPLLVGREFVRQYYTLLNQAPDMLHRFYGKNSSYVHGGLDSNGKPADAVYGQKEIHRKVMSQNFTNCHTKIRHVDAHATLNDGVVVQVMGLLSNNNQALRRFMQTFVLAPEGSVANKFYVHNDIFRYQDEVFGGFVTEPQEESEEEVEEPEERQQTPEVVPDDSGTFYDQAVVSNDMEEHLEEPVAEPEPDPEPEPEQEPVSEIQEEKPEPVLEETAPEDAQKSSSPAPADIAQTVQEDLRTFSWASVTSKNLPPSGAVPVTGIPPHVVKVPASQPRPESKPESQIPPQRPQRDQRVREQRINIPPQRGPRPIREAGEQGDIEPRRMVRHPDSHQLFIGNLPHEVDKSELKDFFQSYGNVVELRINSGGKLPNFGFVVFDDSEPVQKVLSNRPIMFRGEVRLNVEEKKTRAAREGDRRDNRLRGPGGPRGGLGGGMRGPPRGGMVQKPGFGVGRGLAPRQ
Description: LLPS assays were performed in 30 μl total volume at 25°C at pH 7.4 in buffer containing 37 mM Tris, pH 7.5, 116 mM NaCl, 0.33% NP-40, 2.6% glycerol, 0.5 mM DTT with 20 ng/μl total cellular RNA from U2OS cells and 1.425 μM G3BP1, 0.075 μM FLAG-GFP-G3BP1, and 1.5 μM caprin 1. Reactions were initiated by adding G3BP1/caprin 1 protein mix to cellular RNA, followed by 3 min of shaking at 450 rpm and then incubation for 70 min in the dark. For condensates formed with G3BP1 and RNA, 20 μM purified G3BP1 and 100 ng of total cellular RNA from HEK293T cells were added to a buffer consisting of 100 mM NaCl and 16.7 mM HEPES (pH 7.5) in the presence of the indicated dose of G3Ib or vehicle control.

SMILES | spontaneous and arsenite-induced stress granule formation [1] | dissolution of preformed stress granules [2] | condensate formation by G3BP1 and RNA [3]
COCCC(NC(=O)C(C)NC(=O)C(NC(=O)C(NC(=O)C(F)CC(C)(C)C)C(C)(C)O)C(C)c1ccccc1)C(=O)N(C)Cc1ccccc1 (stereo not drawn) [G3Ia] | blocked both spontaneous and arsenite-induced stress granule formation | – | –
CC(NC(=O)C(NC(=O)C(NC(=O)CCC(C)(C)C)C(C)(C)O)C(C)c1ccccc1)C(=O)N1CCCC1c1ccccc1 (stereo not drawn) [G3Ib] | – | nearly instantaneously dissolved stress granules | unaffected
